Patent publication US20240116845A1, “INDENE COMPOUNDS, PHARMACEUTICAL COMPOSITIONS THEREOF, AND THEIR THERAPEUTIC APPLICATIONS” (NucMito Pharmaceuticals Co., Ltd., priority 2021, published 2024)

Experiments:
Format in all cases: cell-based
[1] = test system: alpha-smooth muscle actin (α-SMA); assay: Inhibition of TGF-β induced expression of alpha-smooth muscle actin in CFSC cells (western blot); conditions: compound at 10 μM, TGF-β (10 ng/mL), 24 hours
Protocol: The ability of a compound to inhibit the TGF-β induced expression of alpha-smooth muscle actin (α-SMA) was evaluated in CCl4-treated fat storing (CFSC) cells. α-SMA is considered as a reliable marker of hepatic stellate cell activation and a key biomarker for liver fibrosis.
CFSC cells maintained in a DMEM medium supplemented with 10% fetal bovine serum were seeded to 12-well culture dishes and grown to a confluence of 60-70% the next day. Culture was changed to a serum-free DMEM medium and the cells were treated with the compound at 10 μM in the presence of TGF-β (10 ng/mL). The cells were incubated for another 24 hours. All culture was maintained at 37° C. in 5% carbon dioxide.
An NP-40 lysate solution (50 mM Tris, pH 7.4, 150 mM NaCl, 1% NP-40) with EDTA free cocktail added was used to lyse the cells on ice for 30 min. The lysate was collected and centrifuged at 4° C. for 10 min at 12,000 rpm. The pellet was discarded and the supernatant was transferred to a new tube. The cell lysate was loaded with 5× loading buffer and boiled for 10 min, resolved by 10% SDS-polyacrylamide gel electrophoresis (SDS-PAGE), and transferred to a PVDF membrane. The membrane was blocked with 5% skim milk in Tris-buffered saline and TWEEN® 20 (TBST; 10 mM Tris-HCl, pH 8.0, 150 mM NaCl, 0.1% TWEEN® 20) for 1 h at room temperature and then incubated with α-SMA and β-actin antibodies overnight at 4° C. After washing twice with TBST, the membrane was probed with a […] anti-immunoglobulin (1:5000 dilution) for 1 h at room temperature. After two subsequent rinses in TBST, immunoreactive products were reacted with ECL and visualized by a UVP CHEMSTUDIO™ imaging system. The western blotting bands are quantitated using an ImageJ software. The percentage of inhibition was obtained by calculating the percentage decrease in the band intensity compared to the one treated with TGF-β only.
The results are summarized in Table 1, where A represents a value no less than 80/% inhibition, B represents a value less than 80% but no less than 50% inhibition, C represents a value less than 50% but no less than 30% inhibition, and D represents a value less than 30% inhibition with a compound at 10 μM.

HeLa (cervical cancer) = assay: Antiproliferative activity, CCK-8 cell viability; conditions: Homo sapiens, 72 h, read-out: Inhibition of Cancerous Cells, HELA
Protocol: (§1) The antiproliferative activity of a compound was determined in the following cell lines: MDA-MB-231 (breast cancer), HepG2 (liver cancer), SW480 (colon cancer), B16F10 (malignant melanoma), A431 (epidermoid carcinoma), A549 (lung adenocarcinoma), and HeLa (cervical cancer). MDA-MB-231, HepG2, SW480, B16F10, and A431 cells were cultured in Dulbecco's modified Eagle's medium (DMEM) containing 10% fetal bovine serum (FBS). HeLa cells were cultured in MEM/EBSS (MEM) containing 10% FBS. A549 cells were maintained in Kaighn's modification of Ham's F-12 medium containing 10% FBS. The Cell Counting Kit-8 (CCK-8) assay was used to determine the cell viability of cells following treatment with the compound.
(§2) Briefly, cells were seeded in a 96-well plate at a density of 2,000-5,000 cells/well. Following attachment, the cells were treated with the compound in media at a compound concentration of 3.3 μM, 10 μM, or 30 μM, or DMSO as a control. After the cells were incubated at 37° C. for 72 h, the CCK-8 solution (10 μL) was added to each well. After incubation at 37° C. for 4 h, the absorbance value of each well was determined using a multi-well plate reader at 450 nm. The percentage of cell viability was determined with respect to the DMSO-treated cells. The results were summarized in Table 2-4 below, wherein A represents no less than 50% inhibition of cell growth; B represents less than 50% but no less than 30% inhibition of cell growth; C represents less than 30% inhibition of cell growth.

[2] = test system: A549 (lung adenocarcinoma); assay: Antiproliferative activity, CCK-8 cell viability; conditions: Homo sapiens, 72 h, read-out: Inhibition of Cancerous Cells, A549
Protocol: as §1, §2

[3] = test system: B16F10 (malignant melanoma); assay: Antiproliferative activity, CCK-8 cell viability; conditions: Mus musculus, B16-F10, 72 h, read-out: Inhibition of Cancerous Cells, B16F10
Protocol: as §1, §2

HepG2 (liver cancer) = assay: Antiproliferative activity, CCK-8 cell viability; conditions: Homo sapiens, 72 h, read-out: Inhibition of Cancerous Cells, HepG2
Protocol: as §1, §2

[4] = test system: MDA-MB-231 (breast cancer); assay: Antiproliferative activity, CCK-8 cell viability; conditions: Homo sapiens, 72 h, read-out: Inhibition of Cancerous Cells, MDA-MB-231
Protocol: as §1, §2

SW480 (colon cancer) = assay: Antiproliferative activity, CCK-8 cell viability; conditions: Homo sapiens, 72 h, read-out: Inhibition of Cancerous Cells, SW480
Protocol: as §1, §2

[5] = compound concentration of 3.3 μM
[6] = compound concentration of 10 μM
[7] = compound concentration of 30 μM

CC1=C(CC(=O)O)c2cc(F)ccc2/C1=C\c1ccc(COc2ccc(F)cc2)cc1 [Compound A1, 2-[(1Z)-5-Fluoro-1-(4-((4-fluorophenoxy)methyl)benzylidene)-2-methyl-1H-inden-3-yl]-acetic acid]
inhibition at 10 µM [1]: ≥ 80%

CC1=C(CC(=O)O)c2cc(F)ccc2/C1=C\c1ccc(OCc2ccccc2)cc1 [Compound A2, 2-[(1Z)-5-Fluoro-1-(4-(benzyloxy)benzylidene)-2-methyl-1H-inden-3-yl]-acetic acid]
inhibition at 10 µM [1]: ≥ 80%

CC1=C(CC(=O)O)c2cc(F)ccc2/C1=C\c1ccc(F)cc1OCc1ccccc1 [Compound A7, 2-[(1Z)-1-{[2-(Benzyloxy)-4-fluorophenyl]methylidene}-5-fluoro-2-methyl-1H-inden-3-yl]acetic acid]
inhibition at 10 µM [1]: < 30%

CC1=C(CC(=O)O)c2cc(F)ccc2/C1=C\c1ccc(COc2ccc(F)cc2)cc1C(F)(F)F [Compound A14, 2-[(1Z)-5-Fluoro-1-({4-[(4-fluorophenoxy)methyl]-2-(trifluoromethyl)phenyl}-methylidene)-2-methyl-1H-inden-3-yl]acetic acid]
inhibition at 10 µM [1]: ≥ 80%

CC1=C(CC(=O)N(C)O)c2cc(F)ccc2/C1=C\c1ccc(C2CC2)cc1 [Compound B3, (Z)-2-(1-(4-Cyclopropylbenzylidene)-5-fluoro-2-methyl-1H-inden-3-yl)-N-hydroxy-N-methylacetamide]
inhibition at 10 µM [1]: ≥ 80%

CON(C)C(=O)CC1=C(C)/C(=C/c2ccc(C(C)(C)C)cc2)c2ccc(F)cc21 [Compound B4, (Z)-2-(1-(4-(Tert-butyl)benzylidene)-5-fluoro-2-methyl-1H-inden-3-yl)-N-methoxy-N-methylacetamide]
inhibition at 10 µM [1]: ≥ 80%

CC1=C(CC(=O)N(C)O)c2cc(F)ccc2/C1=C\c1ccc(C)c2ccccc12 [Compound C1, (Z)-2-(5-Fluoro-2-methyl-1-((4-methylnaphthalen-1-yl)methylene)-1H-inden-3-yl)-N-hydroxy-N-methylacetamide]
inhibition at 10 µM [1]: 50 to 80%

CC1=C(CC(=O)NO)c2cc(F)ccc2/C1=C\c1ccc(C)c2ccccc12 [Compound C2, (Z)-2-(5-Fluoro-2-methyl-1-((4-methylnaphthalen-1-yl)methylene)-1H-inden-3-yl)-N-hydroxyacetamide]
inhibition at 10 µM [1]: ≥ 80%

CC1=C(CC(=O)O)c2cc(F)ccc2/C1=C\c1ccc(Br)c2ccccc12 [Compound C3, (Z)-2-(1-((4-Bromonaphthalen-1-yl)methylene)-5-fluoro-2-methyl-1H-inden-3-yl)acetic acid]
inhibition at 10 µM [1]: ≥ 80%

CC1=C(CC(=O)NO)c2cc(F)ccc2/C1=C\c1ccc(Br)c2ccccc12 [Compound C4, (Z)-2-(1-((4-Bromonaphthalen-1-yl)methylene)-5-fluoro-2-methyl-1H-inden-3-yl)-N-hydroxyacetamide]
inhibition at 10 µM [1]: ≥ 80%

CC1=C(CC(=O)O)c2cc(F)ccc2/C1=C\c1ccnc2ccccc12 [Compound C5, (Z)-2-(5-Fluoro-2-methyl-1-(quinolin-4-ylmethylene)-1H-inden-3-yl)acetic acid]
inhibition at 10 µM [1]: ≥ 80%

CC1=C(CC(=O)NO)c2cc(F)ccc2/C1=C\c1ccnc2ccccc12 [Compound C6, (Z)-2-(5-Fluoro-2-methyl-1-(quinolin-4-ylmethylene)-1H-inden-3-yl)-N-hydroxyacetamide]
inhibition at 10 µM [1]: ≥ 80%

CC1=C(CC(=O)NO)c2cc(F)ccc2/C1=C\c1ccc(Oc2ccc(C(C)C)cc2)cc1 [Compound D1, 2-[(1Z)-5-Fluoro-2-methyl-1-({4-[4-(propan-2-yl)phenoxy]phenyl}methylidene)-1H-inden-3-yl]-N-hydroxyacetamide]
inhibition at 10 µM [1]: ≥ 80%

CC1=C(CC(=O)O)c2cc(F)ccc2/C1=C\c1ccc(Oc2cccc(C(C)(C)C)c2)cc1 [Compound D3, 2-[(1Z)-5-Fluoro-2-methyl-1-({4-[3-(tert-butyl)phenoxy]phenyl}methylidene)-1H-inden-3-yl]acetic acid]
inhibition at 10 µM [1]: ≥ 80%

CC1=C(CC(=O)O)c2cc(F)ccc2/C1=C\c1ccc(Oc2ccc(C)c(F)c2)cc1 [Compound D4, 2-[(1Z)-5-Fluoro-2-methyl-1-({4-[3-fluoro-4-methylphenoxy]phenyl}-methylidene)-1H-inden-3-yl]acetic acid]
inhibition at 10 µM [1]: ≥ 80%

CC1=C(CC(=O)O)c2cc(F)ccc2/C1=C\c1ccc(Oc2cccc([N+](=O)[O-])c2)cc1 [Compound D6, 2-[(1Z)-5-Fluoro-2-methyl-1-({4-[3-nitrophenoxy]phenyl}methylidene)-1H-inden-3-yl]acetic acid]
inhibition at 10 µM [1]: < 30%

CC1=C(CC(=O)O)c2cc(F)ccc2/C1=C\c1ccc(Oc2ccc(C(F)(F)F)cc2)cc1 [Compound D7, 2-[(1Z)-5-Fluoro-2-methyl-1-({4-[4-(trifluoromethyl)phenoxy]phenyl}-methylidene)-1H-inden-3-yl]acetic acid]
inhibition at 10 µM [1]: ≥ 80%

O=C(O)CC1=C/C(=C/c2ccc(Oc3ccc(F)cc3)cc2)c2ccccc21 [Compound D32, 2-[(1Z)-1-{[4-(4-Fluorophenoxy)phenyl]methylidene}-1H-inden-3-yl]acetic acid]
inhibition at 3.3 µM (HeLa (cervical cancer); [5]): 30 to 50% | inhibition at 10 µM (HeLa (cervical cancer); [6]): 30 to 50% | inhibition at 30 µM (HeLa (cervical cancer); [7]): ≥ 50% | inhibition at 3.3 µM [2, 5]: < 30% | inhibition at 10 µM [2, 6]: < 30% | inhibition at 30 µM [2, 7]: 30 to 50% | inhibition at 3.3 µM [3, 5]: < 30% | inhibition at 10 µM [3, 6]: 30 to 50% | inhibition at 30 µM [3, 7]: ≥ 50% | inhibition at 3.3 µM (HepG2 (liver cancer); [5]): ≥ 50% | inhibition at 10 µM (HepG2 (liver cancer); [6]): ≥ 50% | inhibition at 30 µM (HepG2 (liver cancer); [7]): ≥ 50% | inhibition at 3.3 µM [4, 5]: < 30% | inhibition at 10 µM [4, 6]: < 30% | inhibition at 30 µM [4, 7]: 30 to 50% | inhibition at 3.3 µM (SW480 (colon cancer); [5]): < 30% | inhibition at 10 µM (SW480 (colon cancer); [6]): < 30% | inhibition at 30 µM (SW480 (colon cancer); [7]): < 30%
